Laboratory results taken from paper PMC12429564.
One block for each molecule: values may come before it.

Columns and labels:
[1] = test system: ACCO GR20hh’ (DNA, aptamer) ACGCACCATTTGTTTAATATGTTTTTTAATTCCCCTTGTGGTGTGTTTCATTTAGGACCAACACAA/TTGTGTTGGTCCTAAATG; assay: fluorescence quenching titration, Hill fit; details: 50 mM NaCl, 10 mM KCl, 5 mM MgCl2; Tris-HCl pH 7.4; 1.5 μM DOX titrated with nucleic acid; apparent; Hill n = 1.58 ± 0.09
[2] = test system: hh’ (DNA, duplex) CATTTAGGACCAACACAA/TTGTGTTGGTCCTAAATG; assay: fluorescence quenching titration, Hill fit; details: 50 mM NaCl, 10 mM KCl, 5 mM MgCl2; Tris-HCl pH 7.4; 1.5 μM DOX titrated with nucleic acid; apparent; Hill n = 0.96 ± 0.03
[3] = test system: GR20 (DNA, aptamer) ACGCACCATTTGTTTAATATGTTTTTTAATTCCCCTTGTGGTGTGT; assay: fluorescence quenching titration, Hill fit; details: 50 mM NaCl, 10 mM KCl, 5 mM MgCl2; Tris-HCl pH 7.4; 1.5 μM DOX titrated with nucleic acid; apparent; Hill n = 1.13 ± 0.03
[4] = test system: U31 (DNA, aptamer) ATCCAGAGTGACGCAGCATTTGTTTAATATGTTTTTTAATTCCCCTTGTGGTGTGTTGTGGACACGGTGGCTTAGT; assay: fluorescence quenching titration, Hill fit; details: 50 mM NaCl, 10 mM KCl, 5 mM MgCl2; Tris-HCl pH 7.4; 1.5 μM DOX titrated with nucleic acid; apparent; Hill n = 0.95 ± 0.04
[5] = target: T1, EGFR* (recombinant extracellular domain of human EGFR) (human, UniProt P00533 25-645); assay: BLI; kon 2.0e5 M-1 s-1; koff 29e-4 s-1; possibly from the authors' earlier work [36], not marked as cited in table; BLI buffer and temperature not in the material; aptamers folded at 1 uM in PBS with 5 mM MgCl2 (95 C 5 min, slow cooling); ACCO assembled in PBS + 5 mM MgCl2 or Tris-HCl pH 7.4, 50 mM NaCl, 10 mM KCl, 5 mM MgCl2; details: protein: recombinant; imperfect hairpins (predicted)
[6] = target: T1, EGFR* (recombinant extracellular domain …); assay: BLI; kon 3.7e5 M-1 s-1; koff 40e-4 s-1; BLI buffer and temperature not in the material; aptamers folded at 1 uM in PBS with 5 mM MgCl2 (95 C 5 min, slow cooling); ACCO assembled in PBS + 5 mM MgCl2 or Tris-HCl pH 7.4, 50 mM NaCl, 10 mM KCl, 5 mM MgCl2; details: protein: recombinant; 18 bp duplex of S5 with 3' end of S3; GR20 part imperfect hairpin (predicted)
[7] = target: T1, EGFR* (recombinant extracellular domain …); assay: BLI; kon 4.3e5 M-1 s-1; koff 61e-4 s-1; BLI buffer and temperature not in the material; aptamers folded at 1 uM in PBS with 5 mM MgCl2 (95 C 5 min, slow cooling); ACCO assembled in PBS + 5 mM MgCl2 or Tris-HCl pH 7.4, 50 mM NaCl, 10 mM KCl, 5 mM MgCl2; details: protein: recombinant; imperfect hairpin (predicted)

aKd [1]: 26 ± 1 nM | aKd [2]: 124 ± 3 nM | aKd [3]: 90 ± 3 nM | aKd [4]: 47 ± 3 nM
Molecule: COc1cccc2c1C(=O)c1c(O)c3c(c(O)c1C2=O)C[C@@](O)(C(=O)CO)C[C@@H]3O[C@H]1C[C@H](N)[C@H](O)[C@H](C)O1

B1: U31 (ssDNA)
DNA: ATCCAGAGTGACGCAGCATTTGTTTAATATGTTTTTTAATTCCCCTTGTGGTGTGTTGTGGACACGGTGGCTTAGT
Kd [5]: 15 ± 1.7 nM

B2: ACCO GR20hh' (mixed)
DNA 1: ACGCACCATTTGTTTAATATGTTTTTTAATTCCCCTTGTGGTGTGTTTCATTTAGGACCAACACAA
DNA 2: TTGTGTTGGTCCTAAATG
Kd [6]: 10.8 ± 1.4 nM

Molecule: ACGCACCATTTGTTTAATATGTTTTTTAATTCCCCTTGTGGTGTGT (ssDNA) [GR20]
Kd [7]: 14.2 ± 0.5 nM
